Columns and labels:
Assay type in all cases: functional
HT-29 [1] = experiment: Growth inhibition of human HT-29 cells assessed as cell growth at 10^-6 M after 48 hrs by sulforhodamine B assay; conditions: HT-29, 48 h, read-out: Activity
TK-10 = experiment: Growth inhibition of human TK10 cells assessed as cell growth at 10^-8 M after 48 hrs by sulforhodamine B assay; conditions: TK-10, 48 h, read-out: Activity
MDA-MB-231 [2] = experiment: Growth inhibition of human MDA-MB-231 cells assessed as cell growth at 10^-4 M after 48 hrs by sulforhodamine B assay; conditions: MDA-MB-231, 48 h, read-out: Activity
RXF 393 = experiment: Growth inhibition of human RXF393 cells assessed as cell growth at 10^-8 M after 48 hrs by sulforhodamine B assay; conditions: RXF 393, 48 h, read-out: Activity
HOP-92 = experiment: Growth inhibition of human HOP92 cells assessed as cell growth at 10^-6 M after 48 hrs by sulforhodamine B assay; conditions: HOP-92, 48 h, read-out: Activity
UACC-257 [3] = experiment: Growth inhibition of human UACC257 cells assessed as cell growth at 10^-8 M after 48 hrs by sulforhodamine B assay; conditions: UACC-257, 48 h, read-out: Activity
RPMI-8226 = experiment: Growth inhibition of human RPMI8226 cells assessed as cell growth at 10^-6 M after 48 hrs by sulforhodamine B assay; conditions: RPMI-8226, 48 h, read-out: Activity
[4] = Growth inhibition of human Hs 578T cells assessed as cell growth at 10^-5 M after 48 hrs by sulforhodamine B assay; conditions: read-out: Activity
[5] = Growth inhibition of human Hs 578T cells assessed as cell growth at 10^-4 M after 48 hrs by sulforhodamine B assay; conditions: read-out: Activity
SF-268 = experiment: Growth inhibition of human SF268 cells assessed as cell growth at 10^-7 M after 48 hrs by sulforhodamine B assay; conditions: SF-268, 48 h, read-out: Activity
PC-3 [6] = experiment: Growth inhibition of human PC3 cells assessed as cell growth at 10^-8 M after 48 hrs by sulforhodamine B assay; conditions: PC-3, 48 h, read-out: Activity
NCI-H460 = experiment: Growth inhibition of human NCI-H460 cells assessed as cell growth at 10^-5 M after 48 hrs by sulforhodamine B assay; conditions: NCI-H460, 48 h, read-out: Activity
MDA-MB-231 [7] = experiment: Growth inhibition of human MDA-MB-231 cells assessed as cell growth at 10^-7 M after 48 hrs by sulforhodamine B assay; conditions: MDA-MB-231, 48 h, read-out: Activity
SF-295 [8] = experiment: Growth inhibition of human SF295 cells assessed as cell growth at 10^-5 M after 48 hrs by sulforhodamine B assay; conditions: SF-295, 48 h, read-out: Activity
HOP-62 = experiment: Growth inhibition of human HOP62 cells assessed as cell growth at 10^-6 M after 48 hrs by sulforhodamine B assay; conditions: HOP-62, 48 h, read-out: Activity
SF-295 [9] = experiment: Growth inhibition of human SF295 cells assessed as cell growth at 10^-6 M after 48 hrs by sulforhodamine B assay; conditions: SF-295, 48 h, read-out: Activity
OVCAR-4 = experiment: Growth inhibition of human OVCAR4 cells assessed as cell growth at 10^-5 M after 48 hrs by sulforhodamine B assay; conditions: OVCAR-4, 48 h, read-out: Activity
HT-29 [10] = experiment: Growth inhibition of human HT-29 cells assessed as cell growth at 10^-4 M after 48 hrs by sulforhodamine B assay; conditions: HT-29, 48 h, read-out: Activity
NCI-H522 [11] = experiment: Growth inhibition of human NCI-H522 cells assessed as cell growth at 10^-5 M after 48 hrs by sulforhodamine B assay; conditions: NCI-H522, 48 h, read-out: Activity
HCT-15 = experiment: Growth inhibition of human HCT15 cells assessed as cell growth at 10^-4 M after 48 hrs by sulforhodamine B assay; conditions: HCT-15, 48 h, read-out: Activity
SN12C = experiment: Growth inhibition of human SN12C cells assessed as cell growth at 10^-8 M after 48 hrs by sulforhodamine B assay; conditions: read-out: Activity
LOX IMVI = experiment: Growth inhibition of human LOXIMVI cells assessed as cell growth at 10^-6 M after 48 hrs by sulforhodamine B assay; conditions: read-out: Activity
T47D [12] = experiment: Growth inhibition of human T47D cells assessed as cell growth at 10^-5 M after 48 hrs by sulforhodamine B assay; conditions: read-out: Activity
UACC-257 [13] = experiment: Growth inhibition of human UACC257 cells assessed as cell growth at 10^-4 M after 48 hrs by sulforhodamine B assay; conditions: UACC-257, 48 h, read-out: Activity
T47D [14] = experiment: Growth inhibition of human T47D cells assessed as cell growth at 10^-7 M after 48 hrs by sulforhodamine B assay; conditions: read-out: Activity
NCI-H522 [15] = experiment: Growth inhibition of human NCI-H522 cells assessed as cell growth at 10^-6 M after 48 hrs by sulforhodamine B assay; conditions: NCI-H522, 48 h, read-out: Activity
SF-539 = experiment: Growth inhibition of human SF539 cells assessed as cell growth at 10^-4 M after 48 hrs by sulforhodamine B assay; conditions: SF-539, 48 h, read-out: Activity
A498 = experiment: Growth inhibition of human A498 cells assessed as cell growth at 10^-4 M after 48 hrs by sulforhodamine B assay; conditions: A498, 48 h, read-out: Activity
HCT-116 = experiment: Growth inhibition of human HCT116 cells assessed as cell growth at 10^-8 M after 48 hrs by sulforhodamine B assay; conditions: HCT-116, 48 h, read-out: Activity
NCI-H322M = experiment: Growth inhibition of human NCI-H322M cells assessed as cell growth at 10^-6 M after 48 hrs by sulforhodamine B assay; conditions: read-out: Activity
SK-OV-3 = experiment: Growth inhibition of human SKOV3 cells assessed as cell growth at 10^-8 M after 48 hrs by sulforhodamine B assay; conditions: SK-OV-3, 48 h, read-out: Activity
NCI-H226 = experiment: Growth inhibition of human NCI-H226 cells assessed as cell growth at 10^-4 M after 48 hrs by sulforhodamine B assay; conditions: NCI-H226, 48 h, read-out: Activity
HT-29 [16] = experiment: Growth inhibition of human HT-29 cells assessed as cell growth at 10^-7 M after 48 hrs by sulforhodamine B assay; conditions: HT-29, 48 h, read-out: Activity
SK-MEL-28 [17] = experiment: Growth inhibition of human SK-MEL-28 cells assessed as cell growth at 10^-4 M after 48 hrs by sulforhodamine B assay; conditions: SK-MEL-28, 48 h, read-out: Activity
SK-MEL-28 [18] = experiment: Growth inhibition of human SK-MEL-28 cells assessed as cell growth at 10^-5 M after 48 hrs by sulforhodamine B assay; conditions: SK-MEL-28, 48 h, read-out: Activity
HL-60(TB) = experiment: Growth inhibition of human HL-60(TB) cells assessed as cell growth at 10^-4 M after 48 hrs by sulforhodamine B assay; conditions: HL-60, 48 h, read-out: Activity
IGROV-1 = experiment: Growth inhibition of human IGROV1 cells assessed as cell growth at 10^-4 M after 48 hrs by sulforhodamine B assay; conditions: IGROV-1, 48 h, read-out: Activity
PC-3 [19] = experiment: Growth inhibition of human PC3 cells assessed as cell growth at 10^-7 M after 48 hrs by sulforhodamine B assay; conditions: PC-3, 48 h, read-out: Activity

Structure (SMILES)	growth at 1 µM (HT-29 [1])	growth at 0.01 µM (TK-10)	growth at 100 µM (MDA-MB-231 [2])	growth at 0.01 µM (RXF 393)	growth at 1 µM (HOP-92)	growth at 0.01 µM (UACC-257 [3])	growth at 1 µM (RPMI-8226)	growth at 10 µM [4]	growth at 100 µM [5]	growth at 0.1 µM (SF-268)	growth at 0.01 µM (PC-3 [6])	growth at 10 µM (NCI-H460)	growth at 0.1 µM (MDA-MB-231 [7])	growth at 10 µM (SF-295 [8])	growth at 1 µM (HOP-62)	growth at 1 µM (SF-295 [9])	growth at 10 µM (OVCAR-4)	growth at 100 µM (HT-29 [10])	growth at 10 µM (NCI-H522 [11])	growth at 100 µM (HCT-15)	further results
COc1cc(-c2nn(-c3cccc(NC(=O)c4ccccc4)c3)cc2-c2ccncc2)ccc1Cl	17%	93%	-42%	100%	15%	93%	46%	18%	32%	94%	94%	7%	101%	-27%	72%	15%	33%	4%	4%	12%	growth at 0.01 µM (SN12C): 96%; growth at 1 µM (LOX IMVI): 36%; growth at 10 µM (T47D [12]): 31%; growth at 100 µM (UACC-257 [13]): 24%; growth at 0.1 µM (T47D [14]): 92%; growth at 1 µM (NCI-H522 [15]): 15%; growth at 100 µM (SF-539): -22%; growth at 100 µM (A498): -7%; growth at 0.01 µM (HCT-116): 97%; growth at 1 µM (NCI-H322M): 78%; growth at 0.01 µM (SK-OV-3): 97%; growth at 100 µM (NCI-H226): 24%; growth at 0.1 µM (HT-29 [16]): 98%; growth at 100 µM (SK-MEL-28 [17]): 26%; growth at 10 µM (SK-MEL-28 [18]): 43%; growth at 100 µM (HL-60(TB)): 16%; growth at 100 µM (IGROV-1): 17%; growth at 0.1 µM (PC-3 [19]): 86%
COc1cc(-c2nn(-c3cccc(NC(=O)c4ccc(N5CCOCC5)c(C(F)(F)F)c4)c3)cc2-c2ccncc2)ccc1Cl	9%	99%	-30%	118%	-5%	95%	16%	3%	14%	91%	92%	1%	79%	-64%	38%	4%	32%	-43%	-14%	2%	growth at 0.01 µM (SN12C): 95%; growth at 1 µM (LOX IMVI): 29%; growth at 10 µM (T47D [12]): 19%; growth at 100 µM (UACC-257 [13]): -31%; growth at 0.1 µM (T47D [14]): 93%; growth at 1 µM (NCI-H522 [15]): 17%; growth at 100 µM (SF-539): -40%; growth at 100 µM (A498): -24%; growth at 0.01 µM (HCT-116): 99%; growth at 1 µM (NCI-H322M): 36%; growth at 0.01 µM (SK-OV-3): 103%; growth at 100 µM (NCI-H226): 16%; growth at 0.1 µM (HT-29 [16]): 106%; growth at 100 µM (SK-MEL-28 [17]): 13%; growth at 10 µM (SK-MEL-28 [18]): 14%; growth at 100 µM (HL-60(TB)): 6%; growth at 100 µM (IGROV-1): -15%; growth at 0.1 µM (PC-3 [19]): 73%
